Laboratory results published in the NIST ThermoML archive (doi:10.1021/je0600808).
± gives the expanded uncertainty stated by the source.

How the values were obtained:
[1] = xn = mol fraction of the nth substance listed; details: 101 kPa, Liquid
[2] = 101.33 kPa, Liquid

CCOC(=O)OCC [diethyl carbonate] + CCCCCO
[1]
Details | mass density, x1 = 0.1016 [kg/m3] | mass density, x1 = 0.2056 [kg/m3] | mass density, x1 = 0.2991 [kg/m3] | viscosity, x1 = 0.1016 [mPa·s] | viscosity, x1 = 0.2056 [mPa·s] | viscosity, x1 = 0.2991 [mPa·s]
293.15 K | 831.8 ± 1.6 | 849.16 ± 1.5 | 864.58 ± 1.4 | 2.879 ± 0.035 | 2.155 ± 0.026 | 1.735 ± 0.021
298.15 K | 827.59 ± 1.6 | 844.75 ± 1.5 | 859.91 ± 1.4 | 2.522 ± 0.031 | 1.907 ± 0.023 | 1.549 ± 0.019
303.15 K | 823.06 ± 1.6 | 840.03 ± 1.5 | 854.97 ± 1.4 | 2.206 ± 0.027 | 1.69 ± 0.021 | 1.386 ± 0.017
313.15 K | 814.72 ± 1.7 | 831.26 ± 1.6 | 845.78 ± 1.5 | 1.723 ± 0.021 | 1.351 ± 0.017 | 1.132 ± 0.015
323.15 K | 805.16 ± 1.8 | 821.48 ± 1.6 | 835.87 ± 1.6 | 1.383 ± 0.017 | 1.109 ± 0.014 | 0.939 ± 0.013
333.15 K | 796.72 ± 1.8 | 812.44 ± 1.7 | 826.67 ± 1.6 | 1.122 ± 0.015 | 0.918 ± 0.013 | 0.79 ± 0.011
343.15 K | 787.31 ± 1.9 | 802.62 ± 1.8 | 816.48 ± 1.7 | 0.919 ± 0.013 | 0.766 ± 0.011 | 0.67 ± 0.01
353.15 K | 778.85 ± 1.9 | 793.74 ± 1.8 | 807.26 ± 1.7 | 0.764 ± 0.011 | 0.65 ± 0.01 | 0.576 ± 0.01
363.15 K | 770.78 ± 2 | 785.19 ± 1.9 | 798.3 ± 1.8 | 0.644 ± 0.01 | 0.557 ± 0.009 | 0.501 ± 0.009

CCOC(=O)OCC [diethyl carbonate] + CCCO
[1]
Details | mass density, x1 = 0.0993 [kg/m3] | mass density, x1 = 0.2003 [kg/m3] | mass density, x1 = 0.3011 [kg/m3] | viscosity, x1 = 0.0993 [mPa·s] | viscosity, x1 = 0.2003 [mPa·s] | viscosity, x1 = 0.3011 [mPa·s]
293.15 K | 829.06 ± 1.6 | 852 ± 1.4 | 872.49 ± 1.3 | 1.668 ± 0.02 | 1.347 ± 0.016 | 1.147 ± 0.014
298.15 K | 824.24 ± 1.6 | 846.98 ± 1.5 | 867.35 ± 1.3 | 1.49 ± 0.018 | 1.211 ± 0.015 | 1.037 ± 0.013
303.15 K | 819.57 ± 1.6 | 841.86 ± 1.5 | 861.83 ± 1.4 | 1.328 ± 0.016 | 1.089 ± 0.014 | 0.938 ± 0.012
313.15 K | 810.34 ± 1.7 | 832.49 ± 1.6 | 852.34 ± 1.4 | 1.073 ± 0.014 | 0.896 ± 0.012 | 0.783 ± 0.011
323.15 K | 798.04 ± 1.8 | 819.74 ± 1.6 | 839.43 ± 1.5 | 0.887 ± 0.012 | 0.751 ± 0.011 | 0.666 ± 0.01
333.15 K | 790.59 ± 1.8 | 811.83 ± 1.7 | 831 ± 1.6 | 0.739 ± 0.011 | 0.636 ± 0.01 | 0.572 ± 0.009
343.15 K | 778.86 ± 1.9 | 799.8 ± 1.8 | 818.79 ± 1.6 | 0.618 ± 0.01 | 0.542 ± 0.009 | 0.493 ± 0.009
353.15 K | 770.55 ± 1.9 | 790.85 ± 1.8 | 809.27 ± 1.7 | 0.524 ± 0.009 | 0.466 ± 0.009 | 0.43 ± 0.008
363.15 K | 761.19 ± 2 | 780.98 ± 1.9 | 799 ± 1.8 | 0.448 ± 0.008 | 0.405 ± 0.008 | 0.378 ± 0.008

CCCO [propan-1-ol]
[2]
Details | mass density [kg/m3] | viscosity [mPa·s]
293.15 K | 803.62 ± 1.8 | 2.238 ± 0.026
298.15 K | 799.41 ± 1.8 | 1.981 ± 0.023
303.15 K | 795.27 ± 1.8 | 1.745 ± 0.021
313.15 K | 786.62 ± 1.9 | 1.381 ± 0.017
323.15 K | 773.91 ± 1.9 | 1.115 ± 0.014
333.15 K | 767.31 ± 2 | 0.907 ± 0.012
343.15 K | 755.95 ± 2.1 | 0.742 ± 0.011
353.15 K | 748.41 ± 2.1 | 0.615 ± 0.01
363.15 K | 739.7 ± 2.2 | 0.515 ± 0.009

CCCCO [butan-1-ol]
[2]
Details | mass density [kg/m3] | viscosity [mPa·s]
293.15 K | 809.82 ± 3.4 | 2.963 ± 0.035
298.15 K | 806.06 ± 3.5 | 2.619 ± 0.031
303.15 K | 802.03 ± 3.5 | 2.298 ± 0.027
313.15 K | 793.29 ± 3.6 | 1.786 ± 0.022
323.15 K | 786.55 ± 3.7 | 1.421 ± 0.018
333.15 K | 777.81 ± 3.9 | 1.137 ± 0.015
343.15 K | 767.03 ± 4 | 0.92 ± 0.013
353.15 K | 757.52 ± 4.1 | 0.759 ± 0.011
363.15 K | 749.38 ± 4.2 | 0.63 ± 0.01

CCOC(=O)OCC [diethyl carbonate] + CCCCO
[1]
Details | mass density, x1 = 0.1016 [kg/m3] | mass density, x1 = 0.2023 [kg/m3] | mass density, x1 = 0.2974 [kg/m3] | viscosity, x1 = 0.1016 [mPa·s] | viscosity, x1 = 0.2023 [mPa·s] | viscosity, x1 = 0.2974 [mPa·s]
293.15 K | 830.56 ± 1.6 | 849.89 ± 1.5 | 867.23 ± 1.4 | 2.161 ± 0.026 | 1.681 ± 0.02 | 1.38 ± 0.02
298.15 K | 826.34 ± 1.6 | 845.4 ± 1.5 | 862.6 ± 1.4 | 1.909 ± 0.023 | 1.504 ± 0.018 | 1.254 ± 0.016
303.15 K | 821.75 ± 1.6 | 840.53 ± 1.5 | 857.48 ± 1.4 | 1.685 ± 0.02 | 1.339 ± 0.017 | 1.13 ± 0.014
313.15 K | 812.55 ± 1.7 | 831.22 ± 1.6 | 847.88 ± 1.5 | 1.345 ± 0.017 | 1.091 ± 0.014 | 0.932 ± 0.013
323.15 K | 804.95 ± 1.7 | 822.83 ± 1.6 | 838.91 ± 1.5 | 1.097 ± 0.014 | 0.906 ± 0.012 | 0.785 ± 0.011
333.15 K | 795.85 ± 1.8 | 813.37 ± 1.7 | 829.07 ± 1.6 | 0.904 ± 0.012 | 0.761 ± 0.011 | 0.668 ± 0.01
343.15 K | 784.94 ± 1.9 | 802.09 ± 1.8 | 817.6 ± 1.7 | 0.749 ± 0.011 | 0.642 ± 0.01 | 0.572 ± 0.009
353.15 K | 775.15 ± 1.9 | 792.01 ± 1.8 | 807.21 ± 1.7 | 0.63 ± 0.01 | 0.549 ± 0.009 | 0.496 ± 0.009
363.15 K | 766.42 ± 2 | 782.78 ± 1.9 | 797.61 ± 1.8 | 0.536 ± 0.009 | 0.475 ± 0.009 | 0.434 ± 0.008

CCCCCO [pentan-1-ol]
[2]
Details | mass density [kg/m3] | viscosity [mPa·s]
293.15 K | 814.51 ± 1.7 | 4.117 ± 0.049
298.15 K | 810.73 ± 1.7 | 3.556 ± 0.043
303.15 K | 806.77 ± 1.8 | 3.06 ± 0.037
313.15 K | 799.05 ± 1.8 | 2.332 ± 0.029
323.15 K | 789.81 ± 1.9 | 1.822 ± 0.023
333.15 K | 781.81 ± 1.9 | 1.44 ± 0.018
343.15 K | 772.84 ± 2 | 1.146 ± 0.015
353.15 K | 764.79 ± 2 | 0.931 ± 0.013
363.15 K | 757.17 ± 2.1 | 0.767 ± 0.011

CCOC(=O)OCC [diethyl carbonate]
[2]
Details | mass density [kg/m3] | viscosity [mPa·s]
293.15 K | 975 ± 1.3 | 0.8 ± 0.011
298.15 K | 968.97 ± 1.4 | 0.746 ± 0.011
303.15 K | 962.39 ± 1.5 | 0.695 ± 0.01
313.15 K | 952.32 ± 1.6 | 0.61 ± 0.01
323.15 K | 939.78 ± 1.8 | 0.541 ± 0.009
333.15 K | 928.69 ± 1.9 | 0.483 ± 0.009
343.15 K | 916.33 ± 2.1 | 0.435 ± 0.008
353.15 K | 905.02 ± 2.2 | 0.393 ± 0.008
363.15 K | 893.71 ± 2.4 | 0.358 ± 0.008
